This is an account of results in US10702526B2, “Inhibitors of immune checkpoint modulators and related methods” (eFFECTOR Therapeutics, Inc., priority 2015, dated 2020).

In general, inhibition refers to the drop in the measured response relative to a control, in per cent.

The test system of assay [1] is T effector (CD3+/CD8+) and T regulatory (CD4+/FOXP3+) cells. As to the kind of experiment: TE:Treg ratio in tumor infiltrating lymphocytes of CT26 allograft tumors (flow cytometry). Type of assay: in vivo, mouse. As to conditions: TILs after 4 days of treatment. On the procedure: Mice having established CT26 tumors (100-200 mm^3) were treated with compound 107, anti-PD1 antibody or a combination of compound 107 and anti-PD-1 antibody, as described in Example 4. After 4 days of treatment, the mice were euthanized and tumors were excised. A single cell suspension was generated by dissecting excised tumors into fine pieces with a razor blade, incubating with collagenase, hyaluronidase and DNAse I (Worthington Biochemical, Lakewood N.J.) in RPMI, incubating in 1× trypsin-EDTA, and finally passaging through a 70 micron cell strainer filter (BD Biosciences, San Jose Calif.). […] For samples assessed for CD45/CD3/CD8, cells were washed twice with flow buffer and incubated with fixation buffer for 10 minutes at 4° C. […] Samples assessed for CD45/CD4 were further processed for intracellular staining of FOXP3 using an anti-FOXP3 antibody (FOXP3-PE, BD Biosciences) and the FOXP3/Transcription Factor staining buffer set (eBiosciences, San Diego Calif.) following the manufacturer's protocol. […] Data were collected and analyzed using a BD Accuri C6 flow cytometer (BD Biosciences, San Jose Calif.). The ratio of TE to Treg cells was calculated by determining the percentage of CD3^+/CD8^+ cells present in the CD45^+ lymphocyte population and dividing by the percentage of CD4^+/FOXP3^+ present from the same population.
On the technique in general: Flow cytometry measures light scatter and fluorescence of single cells or particles in a stream.

Assay [2] relates to IL-10 production in primary T cells. As to the kind of experiment: IL-10 production by activated primary T cells. It counts as cell-based, human.
Assay [3] has as its system IL-2 production in primary T cells. As to the kind of experiment: IL-2 ELISA on supernatants of activated primary T cells. It counts as cell-based, human. The note with it: T cells activated with anti-CD3/anti-CD28 beads. On the procedure:
About 3×10^5 T cells were activated using anti-CD3/anti-CD28 magnetic beads as per manufacturer's protocol (Dynabeads®, Invitrogen, Carlsbad, Calif.). Briefly, a ratio of fresh primary T cells to beads used to activate the T cells was 1:1 (for every 80,000 T cells, 2 μl of beads were added). Test cells were treated simultaneously with various concentrations of MNK-specific inhibitor Compound 107 (0.01, 0.1, 1, 3 and 10 μM). After 48 hours, culture supernatants were harvested and examined via sandwich ELISA for the presence of IL-2 using human IL-2 ELISA DuoSet® (R&D Systems, Minneapolis, Minn.). […] After fixation, cells were washed twice with flow buffer and re-suspended in flow buffer and assessed for fluorescence using BD Accuri C6 cytometer. Data were analyzed using the C6 cytometer software (BD Biosciences, San Jose, Calif.).
(ELISA stands for enzyme-linked immunosorbent assay.)

Assay [4] deals with PD-1 expression on Jurkat cells. As to the kind of experiment: PD-1 expression on PHA/PMA-activated Jurkat T cells (flow cytometry). Type of assay: cell-based, human. As for the experimental part:
To examine the effect of MNK-specific inhibitors on PD-1 expression, Jurkat cells (Clone E6.1, ATCC, transformed T cells) were used, which express PD-1 when activated through T cell receptor (TCR) signaling. Briefly, Jurkat cells were grown in 1×RPMI with 1× Pen/Strep, and 10% FBS, then about 3×10^6 Jurkat cells were activated in presence of 1 μg/mL PHA (Sigma) and 50 ng/mL PMA (Sigma). Test Cells were treated simultaneously with various concentrations of MNK-specific inhibitor Compound 107 (0, 0.01, 0.1, 1, 3 and 10 μM). After 48 hours, culture supernatants were harvested and examined via sandwich ELISA for the presence of IL-2 using human IL-2 ELISA DuoSet® (R&D Systems, Minneapolis, Minn.). The level of PD-1 on Jurkat cells was examined by incubating cells with fixable dead cell stain (1:20,000; BD Biosciences, San Jose, Calif.) for 15 minutes at 4° C., washed twice with flow staining buffer (1×PBS, 4% FBS and 1 mM EDTA), incubated with human FcR block, then contacted with allophycocyanin (APC) conjugated anti-PD-1 antibody (Biolegend, San Diego, Calif.) for 30 minutes at 4° C., washed two times with flow buffer, and finally cells were fixed with fixation buffer for 20 minutes at 4° C. After fixation, cells were washed twice with flow buffer and re-suspended in flow buffer and assessed for fluorescence using BD Accuri C6 flow cytometer. Data were analyzed using the C6 cytometer software (BD Biosciences, San Jose, Calif.).

`Cc1cc(Nc2cc(N)ncn2)c(=O)n2c1C(=O)NC21CCCCC1.Cl` [Compound 107]: the “average TE:Treg ratio” value in assay [1] came to 9.7. In assay [2], the “% IL-10 Inhibition” value is “++++ (++++ = 75-100%)” and the “expression/production of IL-10” value is recorded as “inhibited”. In addition, in assay [2] (Homo sapiens, T-cell, 10 μM, read-out: maximum inhibition of the production of IL-10), the inhibition at 10 µM came to 96%. The IL-2 production entry in assay [3] is listed as “did not detectably alter IL-2 production”. Moreover, the “% PD-1 + Inhibition” value in assay [4] (Jurkat T cell assay, MNK-specific inhibitors) is recorded as “+++ (+++ = 50-75%)”. Further, the PD-1 expression result in assay [4] (Jurkat cells with PHA and PMA, 0.01, 0.1, 1, 3 and 10 μM) was “reduced in a dose dependent manner”. Further, the “reduction in the expression of PD-1 as compared to control” value in assay [4] (PHA/PMA activated Jurkat T cells, highest concentration, 48 hours) is not above 50%.
